Data on 17 compounds can be found in patent US8008303B2, “Biphenyl derivatives and their use in treating hepatitis C” (AstraZeneca AB, priority 2005, dated 2011).

The structures appear in SMILES notation. Where two headings read alike, the source gives them in different places.

For orientation: IC50 means the concentration needed to halve the response being measured. A high value points to weaker potency.

Series [1] deals with HCV replicon cells Huh 9B. The series is described as follows: HCV replicon assay (luciferase readout). It counts as cell-based. Put shortly: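 Compounds, made up at twice final strength (final DMSO 1%), were added to subgenomic replicon cells one day after plating. Incubation then ran 72 h at 37 °C, 5% CO2, without G418. Replication was quantified as firefly luciferase luminescence in lysed cells, with cytotoxicity assessed on a duplicate clear plate.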
A general note: A replicon is a self-replicating genome or part of one, used to study replication in cells.

Series [2] concerns HCV replicon cells Huh 9B. It counts as cell-based.
The mark [3] stands for this setting: Hepatitis C virus, 72 h, concentration reducing replicon level (luciferase activity) by 50% vs untreated cell control, 72 h incubation.
Setting [4] is: concentration reducing total cell area by 50% relative to DMSO controls, methylene blue, absorbance 620 nm, 72 h incubation.

As for `COc1ccc(S(=O)(=O)Nc2ccc(N3CCOCC3)cc2)cc1-c1ccc(C(=O)Nc2ccc(CN3CCN(S(=O)(=O)N(C)C)CC3)cc2)cc1` [Example 247, 2′-Methoxy-5′-(4-morpholin-4-yl-phenylsulfamoyl)-biphenyl-4-carboxylic acid [4-(4-dimethylsulfamoyl-piperazin-1-ylmethyl)-phenyl]-amide], the IC50 in series [1] (setting [3]) is less than 1 µM. For the same compound, in series [2] (setting [4]), the TD50 entry is “* (* < 50 μM)”.
As to `Cc1ccc(C(=O)Nc2ccc(C(=O)N3CCCCC3)cc2)cc1-c1ccc(C(=O)Nc2ccc(CN3CCS(=O)(=O)CC3)cc2)cc1` [Example 144, 6-Methyl-biphenyl-3,4′-dicarboxylic acid 4′-{[4-(1,1-dioxo-1lambda*6*-thiomorpholin-4-ylmethyl)-phenyl]-amide} 3-{[4-(piperidine-1-carbonyl) -phenyl]-amide}], the IC50 in series [1] was in the range of 1 to 5 µM. Moreover, the TD50 result in series [2] is on record as “* (key: * < 50 μM; ** > 50 μM)”.
For the compound `COc1ccc(NC(=O)C2CCCCC2)cc1-c1ccc(C(=O)Nc2ccc(CN3CCS(=O)(=O)CC3)cc2)cc1` [Example 187, 5′-(Cyclohexanecarbonyl-amino)-2′-methoxy-biphenyl-4-carboxylic acid [4-(1,1-dioxo-1lambda*6*-thiomorpholin-4-ylmethyl)-phenyl]-amide], in series [1] (setting [3]), the IC50 was less than 1 µM. In series [2] (setting [4]), the TD50 entry is on record as “* (* < 50 μM)”.
Compound `Cc1ccc(C(=O)Nc2ccc(N3CCOCC3)cc2)cc1-c1ccc(CNC2CC2)cc1` [Example 98, 4′-Cyclopropylaminomethyl-6-methyl-biphenyl-3-carboxylic acid (4-morpholin-4-yl-phenyl)-amide] had an IC50 in series [1] (setting [3]) of 1 to 5 µM. Also, the TD50 result in series [2] (setting [4]) is “* (* < 50 μM)”.
Turning to `COc1ccc(C(=O)Nc2ccc(N3CCOCC3)cc2)cc1-c1ccc(C(=O)Nc2ccc(CN3CCN(S(=O)(=O)C(C)C)CC3)cc2)cc1` [Example 258, 6-Methoxy-biphenyl-3,4′-dicarboxylic acid 3-[(4-morpholin-4-yl-phenyl)-amide] 4′-({4-[4-(propane-2-sulfonyl)-piperazin-1-ylmethyl]-phenyl}-amide)], the 50% inhibitory concentration (IC50) in series [1] is less than 1 µM. In addition, the TD50 entry in series [2] (setting [4]) was “* (* < 50 μM)”.
For the compound `Cc1ccc(C(=O)Nc2ccc(N3CCOCC3)cc2)cc1-c1ccc(C(=O)Nc2ccc(CC#N)cc2)cc1` [Example 39, 6-Methyl-biphenyl-3,4′-dicarboxylic acid 4′-[(4-cyanomethyl-phenyl)-amide] 3-[(4-morpholin-4-yl-phenyl)-amide]], the IC50 in series [1] was in the range of 1 to 5 µM. Besides, in series [2], the TD50 entry is on record as “* (key: * < 50 μM; ** > 50 μM)”.
In series [1], `Cc1ccc(C(=O)Nc2ccc(N3CCOCC3)cc2)cc1-c1ccc(C(=O)Nc2cccc(C(C)O)c2)cc1` (stereo not shown) [Example 31, 6-Methyl-biphenyl-3,4′-dicarboxylic acid 4′-{[3-(1-hydroxy-ethyl)-phenyl]-amide} 3-[(4-morpholin-4-yl-phenyl)-amide]] displayed an IC50 of 1 to 5 µM. In addition, in series [2], the TD50 entry was “** (key: * < 50 μM; ** > 50 μM)”.
With `Cc1ccc(NS(=O)(=O)c2ccc(Cl)s2)cc1-c1ccc(C(=O)Nc2ccc(CN3CCS(=O)(=O)CC3)cc2)cc1` [Example 204, 5′-(5-Chloro-thiophene-2-sulfonylamino)-2′-methyl-biphenyl-4-carboxylic acid [4-(1,1-dioxo-1lambda*6*-thiomorpholin-4-ylmethyl)-phenyl]-amide], in series [1] (setting [3]), the concentration for half-maximal inhibition (IC50) lay in the range of 1 to 5 µM. The TD50 entry in series [2] (setting [4]) is on record as “* (* < 50 μM)”.
Consider `Cc1cc(NC(=O)c2ccco2)ccc1-c1cccc(C(=O)Nc2ccc(CN3CCS(=O)(=O)CC3)cc2)c1` [Example 133, Furan-2-carboxylic acid {3′-[4-(1,1-dioxo-1lambda*6*-thiomorpholin-4-ylmethyl)-phenylcarbamoyl]-2-methyl-biphenyl-4-yl}-amide], for which, in series [1] (setting [3]), the IC50 was in the range of 1 to 5 µM. The TD50 result in series [2] (setting [4]) was “* (* < 50 μM)”.
Consider `Cc1ccc(C(=O)Nc2ccc(N3CCOCC3)cc2)cc1-c1ccc(C(=O)Nc2ccc(CN3CCCCC3)cc2)cc1` [Example 73, 6-Methyl-biphenyl-3,4′-dicarboxylic acid 3-[(4-morpholin-4-yl-phenyl)-amide] 4′-[(4-piperidin-1-ylmethyl-phenyl)-amide]], for which the IC50 in series [1] was less than 1 µM. In addition, the TD50 entry in series [2] is given as “* (key: * < 50 μM; ** > 50 μM)”.
The corresponding values for `CNC(=O)c1ccc(NC(=O)c2ccc(C)c(-c3ccc(C(=O)Nc4ccc(CN5CCS(=O)(=O)CC5)cc4)cc3)c2)cc1` [Example 141, 6-Methyl-biphenyl-3,4′-dicarboxylic acid 4′-{[4-(1,1-dioxo-1lambda*6*-thiomorpholin-4-ylmethyl)-phenyl]-amide} 3-[(4-methylcarbamoyl-phenyl)-amide]] are 1 to 5 µM and “* (key: * < 50 μM; ** > 50 μM)”.
The matching figures for `O=C(Nc1ccc(CN2CCS(=O)(=O)CC2)cc1)c1ccc(-c2cccc(C(=O)Nc3ccc(N4CCOCC4)cc3)c2)cc1` [Example 120, Biphenyl-3,4′-dicarboxylic acid 4′-{[4-(1,1-dioxo-1lambda*6 *-thiomorpholin-4-ylmethyl)-phenyl]-amide} 3-[(4-morpholin-4-yl-phenyl)-amide]]: 1 to 5 µM and “** (key: * < 50 μM; ** > 50 μM)”.
`Cc1ccc(C(=O)Nc2ccc(N3CCOCC3)cc2)cc1-c1ccc(NC(=O)c2ccccc2O)cc1` [Example 109, 4′-(2-Hydroxy-benzoylamino)-6-methyl-biphenyl-3-carboxylic acid (4-morpholin-4-yl-phenyl)-amide]: the IC50 in series [1] (setting [3]) is 1 to 5 µM. For the same compound, in series [2] (setting [4]), the TD50 result is on record as “* (* < 50 μM)”.
The matching figures for `CCCS(=O)(=O)N1CCN(Cc2ccc(NC(=O)c3ccc(-c4cc(NC(=O)C5CC5)ccc4C)cc3)cc2)CC1` [Example 243, 5′-(Cyclopropanecarbonyl-amino)-2′-methyl-biphenyl-4-carboxylic acid [4-(4-propane-1-sulfonyl-piperazin-1-ylmethyl)-phenyl]-amide]: less than 1 µM and “* (* < 50 μM)”.
The matching figures for `Cc1ccc(NC(=O)C2CCCCC2)cc1-c1ccc(C(=O)Nc2ccc(CN3CCS(=O)(=O)CC3)cc2)cc1` [Example 158, 5′-(Cyclohexanecarbonyl-amino)-2′-methyl-biphenyl-4-carboxylic acid [4-(1,1-dioxo-1lambda*6*-thiomorpholin-4-ylmethyl)-phenyl]-amide]: less than 1 µM and “* (* < 50 μM)”.
The corresponding values for `Cc1ccc(CNC(CO)Cc2cnc[nH]2)cc1-c1ccc(C(=O)Nc2ccc(CN3CCS(=O)(=O)CC3)cc2)cc1` (stereo not shown) [Example 200, 5′-{[1-Hydroxymethyl-2-(3H-imidazol-4-yl)-ethylamino]-methyl}-2′-methyl-biphenyl-4-carboxylic acid [4-(1,1-dioxo-1lambda*6*-thiomorpholin-4-ylmethyl)-phenyl]-amide] are more than 5 µM and “** (** > 50 μM)”.
For the compound `Cc1ccc(C(=O)Nc2ccc(C)c(-c3ccc(C(=O)Nc4ccc(CN5CCS(=O)(=O)CC5)cc4)cc3)c2)cc1` [Example 160, 2′-Methyl-5′-(4-methyl-benzoylamino)-biphenyl-4-carboxylic acid [4-(1,1-dioxo-1lambda*6*-thiomorpholin-4-ylmethyl)-phenyl]-amide], the IC50 in series [1] (setting [3]) is less than 1 µM. Moreover, in series [2] (setting [4]), the TD50 result is recorded as “* (* < 50 μM)”.
